Reference: PubChem BioAssay AID1919008 (Molecular Pharmacology Branch, DTP, NCI, 2023)

Tested on: DMS-114 complex spheroids with HUVEC/MSC, growth % test/control
Test: Anticancer human tumor DMS-114 cell line growth inhibition [AhR];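 note: spheroids exposed to agents for 7 days before readout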;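 for viability, T/C: 100% = DMSO vehicle control wells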
Settings: for IC50: curve of first compound; for viability, T/C: stronger effect = lower value
How it was run: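 Spheroids combined tumor cells with HUVEC endothelial cells and human MSCs as stroma. AhR antagonists were paired with standard or investigational drugs, each dosed in half-log steps down from near clinical Cmax, or from 10 microM where Cmax was unknown.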

[1] = second compound 0.1 µM, first compound 0.0316 µM
[2] = second compound 0.1 µM, first compound 0.1 µM
[3] = second compound 0.1 µM, first compound 0.316 µM
[4] = second compound 0.1 µM, first compound 1 µM
[5] = second compound 0.1 µM, first compound 3.16 µM
[6] = second compound 0.1 µM, first compound 10 µM
[7] = second compound 0.316 µM, first compound 0.0316 µM
[8] = second compound 0.316 µM, first compound 0.1 µM
[9] = second compound 0.316 µM, first compound 0.316 µM
[10] = second compound 0.316 µM, first compound 1 µM
[11] = second compound 0.316 µM, first compound 3.16 µM
[12] = second compound 0.316 µM, first compound 10 µM
[13] = second compound 1 µM, first compound 0.0316 µM
[14] = second compound 1 µM, first compound 0.1 µM
[15] = second compound 1 µM, first compound 0.316 µM
[16] = second compound 1 µM, first compound 1 µM
[17] = second compound 1 µM, first compound 3.16 µM
[18] = second compound 1 µM, first compound 10 µM
[19] = second compound 3.16 µM, first compound 0.0316 µM
[20] = second compound 3.16 µM, first compound 0.1 µM
[21] = second compound 3.16 µM, first compound 0.316 µM
[22] = second compound 3.16 µM, first compound 1 µM
[23] = second compound 3.16 µM, first compound 3.16 µM
[24] = second compound 3.16 µM, first compound 10 µM
[25] = second compound 10 µM, first compound 0.0316 µM
[26] = second compound 10 µM, first compound 0.1 µM
[27] = second compound 10 µM, first compound 0.316 µM
[28] = second compound 10 µM, first compound 1 µM
[29] = second compound 10 µM, first compound 3.16 µM
[30] = second compound 10 µM, first compound 10 µM
[31] = second compound 0.1 µM, first compound 0.00316 µM
[32] = second compound 0.1 µM, first compound 0.01 µM
[33] = second compound 0.316 µM, first compound 0.00316 µM
[34] = second compound 0.316 µM, first compound 0.01 µM
[35] = second compound 1 µM, first compound 0.00316 µM
[36] = second compound 1 µM, first compound 0.01 µM
[37] = second compound 3.16 µM, first compound 0.00316 µM
[38] = second compound 3.16 µM, first compound 0.01 µM
[39] = second compound 10 µM, first compound 0.00316 µM
[40] = second compound 10 µM, first compound 0.01 µM

SMILES	IC50 (second compound 0.1 µM) [nM]	IC50 (second compound 0.316 µM) [nM]	IC50 (second compound 1 µM) [nM]	IC50 (second compound 3.16 µM) [nM]	IC50 (second compound 10 µM) [nM]	viability, T/C [1] [%]	viability, T/C [2] [%]	viability, T/C [3] [%]	viability, T/C [4] [%]	viability, T/C [7] [%]	viability, T/C [8] [%]	viability, T/C [9] [%]	viability, T/C [10] [%]	viability, T/C [13] [%]	viability, T/C [14] [%]	viability, T/C [15] [%]	viability, T/C [16] [%]	viability, T/C [19] [%]	viability, T/C [20] [%]	viability, T/C [21] [%]	also measured
CC(C)c1c(-c2ccccc2)nc2c(C#N)c[nH]n2c1=O + Cc1ccccc1N=Nc1ccc(NC(=O)c2ccnn2C)c(C)c1	> 10000	> 10000	> 10000	> 10000	> 10000	104	108	105	103	95.5	97.7	98.9	94.3	95.3	96.8	102	103	96	95.8	93	viability, T/C [5]: 113%; viability, T/C [6]: 95.9%; viability, T/C [11]: 95.9%; viability, T/C [12]: 101%; viability, T/C [17]: 95.3%; viability, T/C [18]: 99.2%; viability, T/C [22]: 96.3%; viability, T/C [23]: 107%; viability, T/C [24]: 102%; viability, T/C [25]: 98.3%; viability, T/C [26]: 96.9%; viability, T/C [27]: 95.6%; viability, T/C [28]: 90.5%; viability, T/C [29]: 94.7%; viability, T/C [30]: 88.8%
CC1COCCN1c1cc(-c2ccnn2C)c2ccnc(-c3ccn[nH]3)c2n1 (stereo not given) + Cc1ccccc1N=Nc1ccc(NC(=O)c2ccnn2C)c(C)c1	620	500	475	495	538	98.1	85.8	68.6	37.2	95.2	83.8	58.7	37.2	101	84.8	57.4	37.3	92.1	81.5	58	viability, T/C [31]: 110%; viability, T/C [32]: 96.3%; viability, T/C [33]: 94.3%; viability, T/C [34]: 106%; viability, T/C [35]: 97.8%; viability, T/C [36]: 98.2%; viability, T/C [37]: 99.7%; viability, T/C [38]: 101%; viability, T/C [22]: 37%; viability, T/C [39]: 89.9%; viability, T/C [40]: 89.2%; viability, T/C [25]: 89.1%; viability, T/C [26]: 66.2%; viability, T/C [27]: 60.5%; viability, T/C [28]: 41%
COc1ccc([C@@H](O)c2cc(-c3ncnc4cc(N5CCOCC5)ccc34)c(F)cc2Cl)nn1 + Cc1ccccc1N=Nc1ccc(NC(=O)c2ccnn2C)c(C)c1	> 10000	> 10000	> 10000	> 10000	> 10000	92.6	106	114	121	98.1	95.7	104	104	96.6	92	94.6	114	96.7	100	91.8	viability, T/C [5]: 124%; viability, T/C [6]: 96.6%; viability, T/C [11]: 111%; viability, T/C [12]: 99.8%; viability, T/C [17]: 129%; viability, T/C [18]: 97%; viability, T/C [22]: 103%; viability, T/C [23]: 112%; viability, T/C [24]: 84.4%; viability, T/C [25]: 94.6%; viability, T/C [26]: 94.2%; viability, T/C [27]: 90.8%; viability, T/C [28]: 91%; viability, T/C [29]: 91.4%; viability, T/C [30]: 53.6%
COc1cc(C2c3cc4c(cc3C(OC3OC5COC(C)OC5C(O)C3O)C3COC(=O)C23)OCO4)cc(OC)c1O (stereo not given) + Cc1cncc(-c2nc(NCCc3c[nH]c4ccccc34)c3ncn(C(C)C)c3n2)c1	448	351	390	298	< 31.6	102	97.8	58.1	27	96.4	96.3	50.4	24.9	92.7	94.6	54.6	23.5	87.1	93.3	47.5	viability, T/C [5]: 16.5%; viability, T/C [6]: 8.1%; viability, T/C [11]: 16.3%; viability, T/C [12]: 9.46%; viability, T/C [17]: 17.6%; viability, T/C [18]: 9.48%; viability, T/C [22]: 21.9%; viability, T/C [23]: 15.7%; viability, T/C [24]: 8.67%; viability, T/C [25]: 42.3%; viability, T/C [26]: 41.6%; viability, T/C [27]: 21.7%; viability, T/C [28]: 10.2%; viability, T/C [29]: 8.09%; viability, T/C [30]: 5.18%
COc1cccc2c1C(=O)c1c(O)c3c(c(O)c1C2=O)CC(O)(C(=O)CO)CC3OC1CC(N)C(O)C(C)O1 (stereo not given) + Cc1cncc(-c2nc(NCCc3c[nH]c4ccccc34)c3ncn(C(C)C)c3n2)c1	< 31.6	< 31.6	< 31.6	< 31.6	< 31.6	28.3	17.7	5	0.93	26.7	16.3	4.84	0.28	27.6	15	4.86	0.26	21.4	15.9	4.37	viability, T/C [5]: 0.14%; viability, T/C [6]: 0.22%; viability, T/C [11]: 0.12%; viability, T/C [12]: 0.18%; viability, T/C [17]: 0.16%; viability, T/C [18]: 0.25%; viability, T/C [22]: 0.22%; viability, T/C [23]: 0.16%; viability, T/C [24]: 0.28%; viability, T/C [25]: 8.93%; viability, T/C [26]: 5.47%; viability, T/C [27]: 3.18%; viability, T/C [28]: 0.37%; viability, T/C [29]: 0.16%; viability, T/C [30]: 0.24%
Nc1ncn(C2CC(O)C(CO)O2)c(=O)n1 (stereo not given) + Cc1cncc(-c2nc(NCCc3c[nH]c4ccccc34)c3ncn(C(C)C)c3n2)c1	> 1000	> 1000	> 1000	> 1000	< 3.16	99.5	101	77	54.8	90.6	88	74.3	52.3	81.5	94.3	86.4	62	86.5	81.7	85.2	viability, T/C [31]: 111%; viability, T/C [32]: 88.5%; viability, T/C [33]: 90.4%; viability, T/C [34]: 93.1%; viability, T/C [35]: 97.8%; viability, T/C [36]: 91.7%; viability, T/C [37]: 82.9%; viability, T/C [38]: 86.5%; viability, T/C [22]: 68.8%; viability, T/C [39]: 31.6%; viability, T/C [40]: 36.9%; viability, T/C [25]: 44.8%; viability, T/C [26]: 45.5%; viability, T/C [27]: 35.6%; viability, T/C [28]: 37.1%
